Reference: patent publication US8858952B2, “Methods and materials for generating T cells” (Mayo Foundation for Medical Education and Research, priority 2009, dated 2014)
Where no end group is shown, it is not given here. [ ]: non-standard residue; d: D form. Ava = NCCCCC(=O)O

Tests used:
splenocytes = assay: Immunization with polypeptide-pulsed DC, splenocyte proliferation; format: in vivo, FVB/N mice; conditions: DC pulsed 2 hours; splenocytes at 1 week; FIG. 30
Protocol: FIG. 30. DC pulsed with modified polypeptides are more immunogenic than FR74-pulsed DC. […] Control=DC pulsed with media.
Alternatively, the strategies developed herein can be applied to other fields of immunotherapy. […] In that experiment, bone-marrow derived DC were pulsed with either PBS, FR74 peptide, or FR74.4 peptide for 2 hours. The DC were washed and injected into FVB/N mice.

ovarian tumor = assay: Vaccination of ovarian tumor-bearing mice with native or nested epitope; format: in vivo; conditions: spleens and lymph nodes, day 50; FIGS. 32, 33
Protocol: Each bar is the mean of three mice, each done in triplicate. P values, comparing FR74-specific responses, were calculated using Tukey-Kramer Multiple Comparisons test.
Each bar is the mean of 3 mice, each done in triplicate. P values, comparing FR74-specific responses or tumor weights, were calculated using Tukey-Kramer Multiple Comparisons test.
Mice were implanted with ovarian tumor and 10 days later were treated with PBS, native epitope FR74 (2150 μg/kg in 100 μL injected at the base of the tail), or nested epitope FR74.4 (5000 μg/kg in 100 μL injected at the base of the tail) over the course of a week. On day 50, the mice were sacrificed and spleen, lymph node, and tumor tissue was harvested. T cell responses and tumor weights were then estimated. The number of FR74-specific T cells in the spleens and lymph nodes was determined (FIG. 32). T cells were estimated using an IFN-γ ELIspot assay testing responses against native FR74 (black bars) or an irrelevant peptide (white bars). In addition, the proliferation of T cells, in response to native FR74 (black bars) or an irrelevant peptide (white bars), was measured in the spleens and lymph nodes (FIG. 33). T cell proliferation was estimated using a tritiated thymidine assay.
In addition, the weight of the greater omentum (a surrogate of total tumor burden) 50 days following last immunization was measured (FIG. 34C).

FR74-specific T cells = assay: Proliferation (thymidine incorporation) of T cells generated ex vivo with polypeptides; format: cell-based, FVB/N mice; conditions: thymidine incorporation against native FR74; FIG. 5
Protocol: FIG. 5 is a graph plotting proliferation (as measured by thymidine incorporation (CPM)) of T cells treated with the indicated polypeptides. Epitope nesting activates high affinity antigen-specific T cells. T cells were tested for incorporation against native FR74 polypeptide at various concentrations. Each data point is the mean of 3 determinations.
In terms of proliferation, only the dual modified polypeptide was able to generate T cells that were able to proliferate at 10^−9 g/mL (FIG. 5).
In order to determine whether furin cleavage is required, two methods are used: furin insensitive linkers and furin inhibitors. Blockade of enhanced ex vivo expansion mediated by the DC3 peptide using these two methods is powerful evidence, outside of a furin knockout mouse, that furin is required for the actions of DC3. Although it has already been shown that DC3 must be linked to antigen, as a control T cells are expanded using free FR74 mixed with free DC3. To test the role of furin with furin-insensitive linkers, RARR (SEQ ID NO:4) is replaced with VRVV (SEQ ID NO:41) with the polypeptides FR74.1, FR74.3, and FR74.8 as shown in FIG. 17. In parallel with these cultures, cultures are included in which inhibitors are included. […] On day 5, CPG is added to the cultures at 1 μg/mL, and the cells are ready for T cell induction on day 6. […]

Foxp3^+ T cells = assay: Flow cytometry of CD4 T cell lines for FoxP3 expression; format: cell-based, FVB/N mice; conditions: FIG. 31
From the text: FIG. 31. […] Flow cytometry dot plots of naïve splenocytes, FR74-specific, FR74.4-specific CD4 T cell lines evaluating for FoxP3 expression. Quadrants set at isotype signal, and the lower right quadrant is percent of total cells in lymphocyte gate. T cells were derived from FVB/N mice.

FR74.4: dual conjugated polypeptide: FR74 nested between Ii-key and DC3 (Ac-LRMK[Ava]KDISYLYRFNWNHCGRARRFYPSYHSTPQRP)
splenocyte proliferation in response to native FR74 antigen after DC immunization (splenocytes): significantly elevated proliferative response
immunogenicity as vaccine in tumor bearing mice (IFN-γ ELIspot and proliferation) (ovarian tumor): more immunogenic than native epitopes
lowest peptide concentration at which generated T cells proliferate (FR74-specific T cells): 10^−9 g/mL
expansion of Foxp3+ T cells (Foxp3^+ T cells): blocks expansion of Foxp3^+ T cells
